Test results taken from patent US12012440B2, “Compositions and methods for treatment of fungal infections” (priority 2020, dated 2024).
Bridge positions count the residues as written; N and C are the ends. Ends that are not written are not given here.

Legend:
C. albicans SC5314 [1] = assay: Murine in vivo model of disseminated candidiasis: survival and body weight; conditions: for survival efficacy compared with 5 mg/kg fluconazole: 0.25 mg/kg Cyclic Peptide 5, 5 mg/kg RTD-1; for survival efficacy compared with 5 mg/kg fluconazole / survival of treated mice compared to saline controls, log-rank P: FIG. 9; for survival of treated mice compared to saline controls, log-rank P: observed 26 days p.i.; for survival as efficacy metric compared with Cyclic Peptide 5: candidemia model, FIGS. 10 to 15; for survival by end point analysis compared with fluconazole: χ^2 analysis at day 30 p.i.; for survival efficacy: 30 days p.i.
Experimental: Mice were infected i.v. at T=0 with 3×10^5 blastospores of C. albicans genetically defined reference strain SC5314.
Mice were infected i.v. at T=0 with 3×10^5 blastospores of C. albicans SC5314. At T=24 h, mice were treated i.p. daily for 7 d w.
In activity studies the synthetic cyclic tetradecapeptide Cyclic Peptide 5 (SEQ ID NO. 6), which was identified initially as having significant antifungal activity, was used as a model peptide. Briefly, 7-8 week old, immunocompetent, female BALB/c mice were challenged i.v. at T=0 with 3×10^5 CFU of C. albicans SC5314. […]
Under these test protocols C. albicans-infected mice treated with saline presented with ruffled fur and significant weight loss, and became moribund within 5-10 days, by which time there was >30% body weight loss.

[2] = system: susceptible and multiple drug resistant strains of C. albicans; conditions: long term, on treatment with RTD-1; cited from earlier work
C. albicans = conditions: cited from earlier work
C. albicans SC5314 [3] = assay: Renal fungal burden in kidney homogenates, murine disseminated candidiasis model; format: in vivo; conditions: FIG. 16; for renal fungal burden compared with fluconazole / renal fungal burden compared with fluconazole, P (Fisher's LSD test): long term survivors 30 days p.i.
From the text: In activity studies the synthetic cyclic tetradecapeptide Cyclic Peptide 5 (SEQ ID NO. 6), which was identified initially as having significant antifungal activity, was used as a model peptide. Briefly, 7-8 week old, immunocompetent, female BALB/c mice were challenged i.v. at T=0 with 3×10^5 CFU of C. albicans SC5314.

[4] = 5 mg/kg i.p. daily for 7 d from T=24 h

RTD-1: naturally occurring θ-defensin of rhesus monkeys, cyclic octadecapeptide with 3 disulfide bonds (cyclo(GFCRCLCRRGVCRCICTR); disulfide (positions not given here); not fully specified (bridges); also: three disulfide bonds, pairing not given here; listed as Macaca mulatta)
survival efficacy compared with 5 mg/kg fluconazole (C. albicans SC5314 [1]): more effective than 5 mg/kg of fluconazole | survival of treated mice compared to saline controls, log-rank P (C. albicans SC5314 [1]; [4]): 3.4×10^−6 | pro-inflammatory cytokine production in vivo [2]: reduction in long term production of pro-inflammatory cytokines | in vitro antifungal activity in presence of serum (C. albicans; presence of serum): abolished by the presence of serum | in vitro active concentration relative to concentrations effective in vivo (C. albicans; vs murine animal model studies): ≥ 50 fold

OC(Cn1cncn1)(Cn1cncn1)c1ccc(F)cc1F [Fluconazole, fluconazole, reference compound]
survival of treated mice compared to saline controls, log-rank P (C. albicans SC5314 [1]; [4]): 3.4×10^−6 | renal fungal burden (C. albicans SC5314 [3]; 5 mg/kg, long term survivors 30 days p.i. vs moribund saline controls): reduced fungal burden

CC[C@H](C)C[C@H](C)CCCCCCCCC(=O)N[C@H]1C[C@@H](O)[C@@H](NCCN)NC(=O)[C@@H]2[C@@H](O)CCN2C(=O)[C@H]([C@H](O)CCN)NC(=O)[C@H]([C@H](O)[C@@H](O)c2ccc(O)cc2)NC(=O)[C@@H]2C[C@@H](O)CN2C(=O)[C@H]([C@@H](C)O)NC1=O [Caspofungin, caspofungin, reference compound]
survival of treated mice compared to saline controls, log-rank P (C. albicans SC5314 [1]; [4]): 3.4×10^−6

Cyclic Peptide 6: synthetic cyclic tetradecapeptide θ-defensin analog; positions 3-14,1,2: C R C R R G V C R C R R G V (GVCRCRRGVCRCRR; not fully specified (bridges); ends and bridges not checked; also: cyclic (type not given here))
survival as efficacy metric compared with Cyclic Peptide 5 (C. albicans SC5314 [1]): equivalent or superior to Cyclic Peptide 5 | survival compared with fluconazole and Cyclic Peptide 5 (C. albicans SC5314 [1]; peptides at 0.25 mg/kg, FIG. 15): survival that exceeded that of both a prior art antifungal drug (fluconazole) and Circular Peptide 5 | survival by end point analysis compared with fluconazole (C. albicans SC5314 [1]): more effective than fluconazole

Cyclic Peptide 1: synthetic cyclic tetradecapeptide θ-defensin analog; positions 3-14,1,2: C S C R R R F C L C R R G V (GVCSCRRRFCLCRR; cyclic backbone; Cyclic Peptide 1)
survival efficacy (C. albicans SC5314 [1]; 0.1 mg/kg i.p. daily for 7 d): effective | survival efficacy (C. albicans SC5314 [1]; 0.25 mg/kg i.p. daily for 7 d): effective | survival as efficacy metric compared with Cyclic Peptide 5 (C. albicans SC5314 [1]): equivalent or superior to Cyclic Peptide 5 | survival by end point analysis compared with fluconazole (C. albicans SC5314 [1]): more effective than fluconazole | renal fungal burden compared with fluconazole (C. albicans SC5314 [3]): reduced fungal burden to a greater extent than fluconazole | renal fungal burden compared with fluconazole, P (Fisher's LSD test) (C. albicans SC5314 [3]): 3.5×10^−5

Cyclic Peptide 2: synthetic cyclic tetradecapeptide θ-defensin analog; positions 3-14,1,2: C S C R R R F C I C R R G V (cyclo(GVCSCRRRFCICRR); disulfide 5-10, 3-12)
survival as efficacy metric compared with Cyclic Peptide 5 (C. albicans SC5314 [1]): equivalent or superior to Cyclic Peptide 5

Cyclic Peptide 4: synthetic cyclic tetradecapeptide θ-defensin analog; positions 3-14,1,2: C I C R R R A C L C R R G L (GLCICRRRACLCRR; cyclic backbone; Cyclic Peptide 4)
survival efficacy (C. albicans SC5314 [1]; 0.25 mg/kg i.p. daily for 7 d): effective | survival as efficacy metric compared with Cyclic Peptide 5 (C. albicans SC5314 [1]): equivalent or superior to Cyclic Peptide 5 | survival by end point analysis compared with fluconazole (C. albicans SC5314 [1]): more effective than fluconazole | renal fungal burden compared with fluconazole (C. albicans SC5314 [3]): reduced fungal burden to a greater extent than fluconazole | renal fungal burden compared with fluconazole, P (Fisher's LSD test) (C. albicans SC5314 [3]): 0.02

Cyclic Peptide 5: model synthetic cyclic tetradecapeptide θ-defensin analog; positions 3-14,1,2: C I C R R R F C L C R R G V (GVCICRRRFCLCRR; cyclic backbone; Cyclic Peptide 5)
survival efficacy compared with 5 mg/kg fluconazole (C. albicans SC5314 [1]): more effective than 5 mg/kg of fluconazole | survival efficacy compared with RTD-1 (C. albicans SC5314 [1]; 0.25 mg/kg Cyclic Peptide 5 vs 5 mg/kg RTD-1, i.p. once a day for 7 days, BALB/c mice): more effective than 5 mg/kg of RTD-1 | survival of treated mice compared to saline controls, log-rank P (C. albicans SC5314 [1]; 0.25 mg/kg i.p. daily for 7 d from T=24 h): 2.3×10^−7 | survival efficacy (FIG. 10) (C. albicans SC5314 [1]; 0.25 mg/kg or 0.1 mg/kg, results similar to treatment with saline): relatively ineffective | renal fungal burden compared with fluconazole (C. albicans SC5314 [3]): reduced fungal burden to a greater extent than fluconazole | renal fungal burden compared with fluconazole, P (Fisher's LSD test) (C. albicans SC5314 [3]): 3×10^−3

Cyclic Peptide 3: synthetic cyclic tetradecapeptide θ-defensin analog; positions 3-14,1,2: C I C R R R V C I C R R G V (GVCICRRRVCICRR; cyclic backbone; Cyclic Peptide 3)
survival efficacy (C. albicans SC5314 [1]; 0.1 mg/kg i.p. daily for 7 d): effective | survival as efficacy metric compared with Cyclic Peptide 5 (C. albicans SC5314 [1]): equivalent or superior to Cyclic Peptide 5 | survival by end point analysis compared with fluconazole (C. albicans SC5314 [1]): more effective than fluconazole | renal fungal burden compared with fluconazole (C. albicans SC5314 [3]): reduced fungal burden to a greater extent than fluconazole | renal fungal burden compared with fluconazole, P (Fisher's LSD test) (C. albicans SC5314 [3]): 7.4×10^−3
